Assay results published in paper PMC10698726 (Molecular Pharmaceutics, 2023).
Where two headings read alike, the source gives them in different places.

What was measured:
OCT2 = biological target: T1, OCT2 (Homo sapiens, UniProt O15244); assay: Inhibition of model substrate uptake in OCT2-overexpressing HEK293 cells; details: for inhibition at 5 min, 20 μM / ASP+ inhibition [%] / N-Ethyllidocaine inhibition [%] / (S,S)-Ethambutol inhibition [%]: OCT2, 20 μM inhibitor
T1 sequence (O15244 1-555): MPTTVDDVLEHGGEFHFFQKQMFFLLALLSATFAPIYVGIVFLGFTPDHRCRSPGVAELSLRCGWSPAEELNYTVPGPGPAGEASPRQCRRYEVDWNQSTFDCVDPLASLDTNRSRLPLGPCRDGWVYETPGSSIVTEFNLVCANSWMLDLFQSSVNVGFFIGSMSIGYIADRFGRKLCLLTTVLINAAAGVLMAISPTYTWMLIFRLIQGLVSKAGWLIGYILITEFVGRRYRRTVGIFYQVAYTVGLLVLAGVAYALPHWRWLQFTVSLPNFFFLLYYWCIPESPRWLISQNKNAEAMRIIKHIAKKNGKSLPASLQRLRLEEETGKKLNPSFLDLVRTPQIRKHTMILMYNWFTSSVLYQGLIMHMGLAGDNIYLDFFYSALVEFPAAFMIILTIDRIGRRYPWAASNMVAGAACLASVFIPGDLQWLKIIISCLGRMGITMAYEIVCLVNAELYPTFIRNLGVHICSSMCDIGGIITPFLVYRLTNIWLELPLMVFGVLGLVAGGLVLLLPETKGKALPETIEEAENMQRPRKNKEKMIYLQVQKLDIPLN

OCT3 = biological target: T2, OCT3 (Homo sapiens, UniProt O75751); assay: Inhibition of model substrate uptake in OCT3-overexpressing HEK293 cells; type: cell-based
T2 construct: expressed in transfected cells; host or cells: HEK293
T2 sequence (O75751 1-556): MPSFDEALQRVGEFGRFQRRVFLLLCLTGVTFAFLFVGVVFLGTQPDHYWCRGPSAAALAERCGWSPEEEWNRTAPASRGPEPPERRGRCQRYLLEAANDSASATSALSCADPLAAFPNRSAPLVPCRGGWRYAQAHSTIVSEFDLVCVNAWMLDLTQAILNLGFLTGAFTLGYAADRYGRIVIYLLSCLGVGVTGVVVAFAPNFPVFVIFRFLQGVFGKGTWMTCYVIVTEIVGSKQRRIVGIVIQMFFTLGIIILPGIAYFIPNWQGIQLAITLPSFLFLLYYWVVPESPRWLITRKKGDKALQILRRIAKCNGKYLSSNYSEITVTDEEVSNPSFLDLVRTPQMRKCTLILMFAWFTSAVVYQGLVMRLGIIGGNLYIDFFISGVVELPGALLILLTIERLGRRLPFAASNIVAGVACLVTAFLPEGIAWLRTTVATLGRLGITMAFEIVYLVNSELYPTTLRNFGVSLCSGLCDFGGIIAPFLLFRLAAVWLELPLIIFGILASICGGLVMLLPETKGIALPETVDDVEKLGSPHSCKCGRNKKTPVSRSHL
Outline: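 Transporter-overexpressing HEK293 cells were incubated 5 min in HBSS+ with 2 μM model substrate, with or without 20 μM inhibitor or increasing inhibitor concentrations. Uptake was read as ASP^+ fluorescence or by LC–MS/MS, with empty-vector uptake subtracted. IC50 came from a Hill fit of activity versus log concentration.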

OCT1 = biological target: T3, OCT1 (Homo sapiens, UniProt O15245); assay: Inhibition of model substrate uptake in OCT1-overexpressing HEK293 cells; type: cell-based; parameters: expressed in transfected cells; host or cells: HEK293; details: for inhibition at 5 min, 20 μM / selectivity ratio at 5 min: OCT1-overexpressing HEK293 cells; for IC50: read-out: IC50; for selectivity ratio at 5 min: ratio of the IC50 values of both isomers, label = isomer named in the cell (as a rule the one with the higher IC50), read-out: Stereoselectivity (x-fold for the named isomer)
T3 sequence (O15245 1-554): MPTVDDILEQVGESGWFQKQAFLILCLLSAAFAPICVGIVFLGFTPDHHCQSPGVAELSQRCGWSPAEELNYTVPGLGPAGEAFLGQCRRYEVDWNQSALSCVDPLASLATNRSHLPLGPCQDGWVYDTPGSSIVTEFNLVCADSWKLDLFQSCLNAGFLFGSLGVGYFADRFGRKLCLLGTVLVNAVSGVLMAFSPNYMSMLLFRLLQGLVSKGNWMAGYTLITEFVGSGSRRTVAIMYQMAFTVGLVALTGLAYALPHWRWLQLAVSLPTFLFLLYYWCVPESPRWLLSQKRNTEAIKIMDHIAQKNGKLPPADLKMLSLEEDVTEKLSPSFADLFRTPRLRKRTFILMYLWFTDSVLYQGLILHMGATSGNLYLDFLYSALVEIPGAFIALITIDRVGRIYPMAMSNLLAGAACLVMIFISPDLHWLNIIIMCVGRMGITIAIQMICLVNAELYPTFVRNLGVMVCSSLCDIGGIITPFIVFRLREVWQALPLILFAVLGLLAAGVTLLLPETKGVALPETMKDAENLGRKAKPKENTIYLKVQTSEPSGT
Procedure: Koepsell and Gorbulev (University of Würzburg, Germany).
Fluorescence quantification was performed in technical duplicates.

[1] = human, OCT2-overexpressing HEK293 cells, pH 7.4, probe ASP+ (2 μM), ASP+ inhibition [%], 2 μM ASP+, 5 min
[2] = human, OCT2-overexpressing HEK293 cells, pH 7.4, probe N-ethyllidocaine (2 μM), N-Ethyllidocaine inhibition [%], 2 μM N-ethyllidocaine, 5 min
[3] = OCT3, 20 μM inhibitor, 2 μM (S)-zolmitriptan, 5 min
[4] = OCT3, 20 μM inhibitor, 2 μM ASP+, 5 min
[5] = human, pH 7.4, probe ASP+ (2 μM), OCT1, 20 μM inhibitor, 2 μM ASP+, 5 min, mean of three experiments, read-out: ASP+ inhibition [%]
[6] = human, pH 7.4, probe sumatriptan (2 μM), OCT1, 20 μM inhibitor, 2 μM sumatriptan, 5 min, read-out: Sumatriptan inhibition [%]
[7] = OCT1, 20 μM inhibitor, 2 μM ASP+, 5 min, mean of three experiments
[8] = OCT1, 20 μM inhibitor, 2 μM sumatriptan, 5 min
[9] = OCT3, 20 μM inhibitor, 2 μM (S,S)-ethambutol, 5 min
[10] = OCT1, 20 μM inhibitor, 2 μM (S,S)-ethambutol, 5 min
[11] = human, OCT2-overexpressing HEK293 cells, pH 7.4, probe (S,S)-ethambutol (2 μM), (S,S)-Ethambutol inhibition [%], 2 μM (S,S)-ethambutol, 5 min
[12] = HEK293, 5 min, read-out: (S)-Zolmitriptan inhibition [%], OCT3, 20 μM inhibitor, 2 μM (S)-zolmitriptan, 5 min
[13] = HEK293, 5 min, read-out: (S,S)-Ethambutol inhibition [%], OCT3, 20 μM inhibitor, 2 μM (S,S)-ethambutol, 5 min
[14] = HEK293, OCT3, 20 μM inhibitor, 2 μM ASP+, 5 min, read-out: ASP+ inhibition [%]
[15] = human, pH 7.4, probe (S,S)-ethambutol (2 μM), (S,S)-Ethambutol inhibition [%], OCT1, 20 μM inhibitor, 2 μM (S,S)-ethambutol, 5 min
[16] = IC50, OCT2, Table S5, 2 μM ASP+ as model substrate, 5 min

Structure (SMILES) | inhibition at 5 min, 20 μM (OCT2; [1]) [%] | inhibition at 5 min, 20 μM (OCT2; [2]) [%] | (S)-Zolmitriptan inhibition [%] (OCT3; [3]) | ASP+ inhibition [%] (OCT3; [4]) | inhibition at 5 min, 20 μM (OCT1; [5]) [%] | inhibition at 5 min, 20 μM (OCT1; [6]) [%] | ASP+ inhibition [%] (OCT2; 2 μM ASP+, 5 min) | N-Ethyllidocaine inhibition [%] (OCT2; 2 μM N-ethyllidocaine, 5 min) | ASP+ inhibition [%] (OCT1; [7]) | Sumatriptan inhibition [%] (OCT1; [8]) | (S,S)-Ethambutol inhibition [%] (OCT2; 2 μM (S,S)-ethambutol, 5 min) | (S,S)-Ethambutol inhibition [%] (OCT3; [9]) | (S,S)-Ethambutol inhibition [%] (OCT1; [10]) | further results
CCC(CO)NCCNC(CC)CO [(R,R)-Ethambutol] | 34.4 | 7.7 | -3.7 | 9.1 | 7.7 | 17.9 |  |  |  |  |  |  |  | 
CCC(CO)NCCNC(CC)CO [(R,S)-Ethambutol] |  |  | -8.0 | 2.6 |  |  | 26.0 | 6.8 | 4.0 | 10.2 |  |  |  | 
O=C(OC1C[N+]2(CCCOc3ccccc3)CCC1CC2)C(O)(c1cccs1)c1cccs1 [(S)-Aclidinium] |  |  | 53.3 | 37.7 |  |  | 101.8 | 57.3 | 78.8 | 93.8 | 2.7 | 67.7 | 101.4 | 
CCCCN1CCCC[C@H]1C(=O)Nc1c(C)cccc1C [(S)-Bupivacaine] | 43.1 | 50.2 |  |  | 23.5 | 43.9 |  |  |  |  |  |  |  | IC50 (OCT2; IC50 [μM], OCT2, Table 1): 48.4 µM; selectivity ratio at 5 min (OCT2; human, OCT2-overexpressing HEK293 cells, pH 7.4): 2.3; inhibition at 5 min, 20 μM (OCT2; [11]): 38.5%; inhibition at 20 µM (OCT3; [12]): 37.2%; inhibition at 20 µM (OCT3; [13]): 33.4%; inhibition at 20 µM (OCT3; [14]): 24.3%; IC50 (OCT1; OCT1, Table 1): 18.7 µM; inhibition at 5 min, 20 μM (OCT1; [15]): 50.6%; selectivity ratio at 5 min (OCT1; human, pH 7.4, OCT1, Table S5): 1.8
COc1ccccc1OCCNC[C@H](O)COc1cccc2[nH]c3ccccc3c12 [(S)-Carvedilol] | 94.9 | 48.8 |  |  | 74.5 | 96.5 |  |  |  |  |  |  |  | inhibition at 5 min, 20 μM (OCT2; [11]): 8.7%; inhibition at 20 µM (OCT3; [12]): 32.8%; inhibition at 20 µM (OCT3; [13]): 49.5%; inhibition at 20 µM (OCT3; [14]): 16.3%; inhibition at 5 min, 20 μM (OCT1; [15]): 100%
N[C@H]1CONC1=O [(S)-Cycloserine] |  |  | 6.3 | 19.3 |  |  | 14.6 | 14.6 | -2.6 | 35.9 | 0.8 | 12.2 | 0.3 | 
C#CCN(C)[C@@H](C)Cc1ccccc1 [(S)-Deprenyl] |  |  |  | 9.6 |  |  | 88.0 | 47.7 | 26.1 |  |  |  |  | IC50 (OCT2; [16]): 3.4 µM; selectivity ratio (OCT2; human, pH 7.4): 1.4; (S)-Zolmitriptan inhibition [%] (OCT3): 11.5%; (S,S)-Ethambutol inhibition [%] (OCT3): 20.9%; Sumatriptan inhibition [%] (OCT1; human, pH 7.4): 68.6%
CN(C)CCO[C@@](C)(c1ccccc1)c1ccccn1 [(S)-Doxylamine] |  |  | 33.8 | 7.4 |  |  | 64.3 | -17.1 | 51.7 | 88.2 | 26.3 | 35.8 | 86.5 | IC50 (OCT1; OCT1, Table S5, 2 μM ASP+ or ethambutol as model substrate, 5 min): 32.2 µM; selectivity ratio at 5 min (OCT1; human, pH 7.4, OCT1, Table S5): 1.4
OC[C@@H](O)CN1CCN(c2ccccc2)CC1 [(S)-Dropropizine] |  |  | -17.1 | 29.1 |  |  | 51.1 | 7.5 | 24.6 | 30.4 | 20.5 | 6.7 | 27.4 | IC50 (OCT2; [16]): 55.6 µM
